Experimental data reported in patent US12187705B2, “Heteroaryl-triazole and heteroaryl-tetrazole compounds as pesticides” (Bayer Aktiengesellschaft, priority 2018, dated 2025).

Experiments:
Assay type in all cases: in vivo
[1] = system: Musca domestica strain WHO-N; assay: Musca domestica test (MUSCDO surface treatment & contact assay); conditions: 24 hours after contact, read-out: efficacy (mortality); for mortality at 20 mg/m2: surface concentration 20 mg/m^2, 30 minutes exposure
Experimental: Musca domestica Test (MUSCDO Surface Treatment & Contact Assay)
Solvent: Aceton+2000 ppm rapeseed oil methyl ester (RME)
In order to produce a sufficient, active ingredient containing solution it is necessary to solve the test-compound in the solvent-mix (Acetone at 2 mg/ml/RME 2000 ppm). This solution is pipetted onto a glazed tile and after evaporation of the Acetone, adult flies of the species Musca domestica strain WHO-N are placed onto the dried surface. The exposure time is 30 minutes.
Mortality in percent (%) is determined 24 hours after contact to the treated surface. 100% mortality means that all test-insects are dead, whereas 0% means that not a single insect died.

Diabrotica balteata = Diabrotica balteata spray test; conditions: Diabrotica balteata, 168 h; 160 μg/well, wheat seeds, after 7 days; read-out: efficacy (seedlings grown)
Method in brief: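 Wheat seeds germinated 1 day on agar were sprayed with compound diluted in water with 1000 ppm emulsifier, then infested with 10-20 Diabrotica balteata larvae. Efficacy in % scored after 7 days: 100% = seedlings grown as untreated, uninfected control; 0% = no seedlings grown.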

[2] = system: Aedes aegypti strain MONHEIM; assay: Aedes aegypti test (AEDSAE surface treatment & contact assay); conditions: 24 hours after contact, read-out: efficacy (mortality); for mortality at 4 mg/m2: surface concentration 4 mg/m^2, 30 minutes exposure; for mortality at 20 mg/m2: surface concentration 20 mg/m^2, 30 minutes exposure
Method in brief: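 Compound dissolved in acetone (2 mg/ml) with 2000 ppm rapeseed oil methyl ester and dried onto a glazed tile. Adult mosquitoes held on the treated surface for 30 minutes exposure. Percent mortality scored 24 hours after contact.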

Nezara viridula = Nezara viridula spray test; conditions: in Hordeum vulgare, 96 h
Method in brief: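 Barley plants infested with stink bug larvae were sprayed with compound diluted in water containing 1000 ppm emulsifier. Mortality (%) was scored after 4 days, 100% meaning all bugs killed.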

Nilaparvata lugens = Nilaparvata lugens spray test; conditions: Nilaparvata lugens, in Oryza sativa, 96 h
Method in brief: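 Rice plants sprayed with compound diluted in water containing 1000 ppm emulsifier, then infested with brown planthopper. Mortality (%) scored after 4 days, 100% meaning all insects killed.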

Tetranychus urticae = Tetranychus urticae spray test OP-resistant; conditions: Tetranychus urticae, foliar, 144 h, French bean leaf disks, after 6 days
Experimental: Tetranychus urticae—Spray Test OP-Resistant
To produce a suitable preparation of active compound, 1 part by weight of active compound is mixed with the stated amount of solvents and is diluted with water, containing an emulsifier concentration of 1000 ppm, to the desired concentration. Further test concentrations are prepared by dilution with emulsifier containing water.
French bean (Phaseolus vulgaris) leaf disks infected with all instars of the two spotted spidermite (Tetranychus urticae), are sprayed with a preparation of the active ingredient of the desired concentration.
After 6 days mortality in % is determined. 100% means all spider mites have been killed and 0% means none of the spider mites have been killed.

[3] = system: Culex quinquefasciatus strain P00; assay: Culex quinquefasciatus test (CULXFA surface treatment & contact assay); conditions: 24 hours after contact, read-out: efficacy (mortality); for mortality at 4 mg/m2: surface concentration 4 mg/m^2, 30 minutes exposure; for mortality at 20 mg/m2: surface concentration 20 mg/m^2, 30 minutes exposure
Method in brief: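 Compound dissolved in acetone (2 mg/ml) with 2000 ppm rapeseed oil methyl ester, applied to glazed tile and dried. Adult strain P00 mosquitoes exposed to the surface for 30 minutes. Percent mortality scored 24 hours after contact.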

Ctenocephalides felis [4] = assay: Ctenocephalides felis in-vitro contact test adult cat flea; conditions: Ctenocephalides felis; 5 μg/cm^2 (=500 g/ha), after 48 hours; read-out: efficacy (fleas dead or moribund)
Method in brief: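 Compound in acetone was coated on glass tube walls, giving 5 μg/cm^2 at 900 ppm. 5-10 adult cat fleas were held at room temperature for 48 h, then heat-challenged at 45-50° C. Fleas immotile or uncoordinated were scored dead/moribund, expressed as % efficacy.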

Ctenocephalides felis [5] = assay: Ctenocephalides felis oral test; conditions: Ctenocephalides felis, in Bos taurus, po, 48 h
Method in brief: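 About 20 adult unfed fleas fed through parafilm on cattle blood containing compound (DMSO concentrate diluted in blood); blood held at 37° C., fleas at room temperature. Mortality in % scored after 2 days (100% = all killed).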

Myzus persicae = Myzus persicae spray test; conditions: in Brassica rapa, foliar, 120 h
Method in brief: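 Chinese cabbage leaf disks infested with all aphid instars were sprayed with compound diluted in water containing emulsifier (1000 ppm). Mortality (%) was scored after 5 days, 100% meaning all aphids killed.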

SMILES | mortality at 20 mg/m2 [1] [%] | pest or weed control at 160 µg/disc, 160 µg/well (Diabrotica balteata) [%] | mortality at 4 mg/m2 [2] [%] | mortality at 20 mg/m2 [2] [%] | mortality at 500 g/ha (Nezara viridula) [%] | mortality at 500 g/ha (Nilaparvata lugens) [%] | mortality at 500 g/ha (Tetranychus urticae) [%] | mortality at 4 mg/m2 [3] [%] | mortality at 20 mg/m2 [3] [%] | pest or weed control at 5 µg/cm2, 5 µg/cm2 (Ctenocephalides felis [4]) [%] | mortality at 100 ppm (Ctenocephalides felis [5]) [%] | mortality at 500 g/ha (Myzus persicae) [%] | mortality at 4 mg/m2 ([1]; surface concentration 4 mg/m^2, 30 minutes exposure) [%]
CCN(C(=O)c1cc(Cl)cc(S(C)(=O)=O)c1)C(C)c1ncnn1-c1ncccn1 (stereo not shown) [Example I-040, 3-chloro-N-ethyl-5-(methylsulfonyl)-N-{1-[1-(pyrimidin-2-yl)-1H-1,2,4-triazol-5-yl]ethyl}benzamide] | 80 to 100 | 100 | 80 to 100 | 90 to 100 | 100 | 100 | 90 | 80 to 100 | 80 to 100 | 100 | 100 | 90 | 
C[C@@H](NC(=O)c1cc(Cl)cc(S(=O)(=O)C2CC2)c1)c1ncnn1-c1ncccn1 [Example I-042] | 80 to 100 | 100 | 80 to 100 | 90 to 100 | 100 | 100 | 90 | 80 to 100 | 80 to 100 | 100 | 100 | 90 | 80 to 100
